From patent US9556205B2, “Fungicide N-[(trisubstitutedsilyl)methyl]-carboxamide derivatives” (BAYER INTELLECTUAL PROPERTY GMBH, priority 2010, dated 2017)

What was measured:
Pyrenophora teres = assay: In vivo preventive test on Pyrenophora teres (barley), Example F; details: for Efficacy: 500 ppm of active ingredient, evaluated 7-9 days after inoculation; for disease control: 500 ppm, comparison with prior-art compound
Protocol: (§1) Solvent: 49 parts by weight of N,N-dimethylformamide Emulsifier: 1 part by weight of alkylaryl polyglycol ether To produce a suitable preparation of active compound, 1 part by weight of active compound is mixed with the stated amounts of solvent and emulsifier, and the concentrate is diluted with water to the desired concentration. To test for preventive activity, young plants are sprayed with the preparation of active compound at the stated rate of application. One day after this treatment, the plants are inoculated with an aqueous spore suspension of Pyrenophora teres. […] Then the plants are placed in a greenhouse at a temperature of approximately 20° C. and a relative atmospheric humidity of approximately 80%.

Alternaria solani = assay: In vivo preventive test on Alternaria solani (tomato); details: for Efficacy: 500 ppm of active ingredient, evaluated 7 days after inoculation; for disease control: 500 ppm, comparison with prior-art compound
Protocol: as §1, with “Alkylarylpolyglycolether” for “alkylaryl polyglycol ether”, “Alternaria solani.” for “Pyrenophora teres.”, “an incubation cabinet” for “a greenhouse”, “at” for “at a temperature of”, “96%.” for “approximately 80%.”

Puccinia recondita [1] = assay: In vivo preventive test on Puccinia recondita (wheat), Example H; details: 500 ppm, evaluated 7-9 days after inoculation
Protocol: as §1, with “N,N-dimethylacetamide” for “N,N-dimethylformamide”, “Puccinia recondita.” for “Pyrenophora teres.”

[2] = log P by HPLC on reversed-phase column (C18), EEC Directive 79/831 Annex V.A8; assay type: physicochemical; details: 40° C., 0.1% aqueous formic acid and acetonitrile, linear gradient 10% to 90% acetonitrile
Protocol: In table 1, the log P values were determined in accordance with EEC Directive 79/831 Annex V.A8 by HPLC (High Performance Liquid Chromatography) on a reversed-phase column (C18), using the method described below:
Temperature: 40° C.; Mobile phases: 0.1% aqueous formic acid and acetonitrile; linear gradient from 10% acetonitrile to 90% acetonitrile.
Calibration was carried out using unbranched alkan-2-ones (comprising 3 to 16 carbon atoms) with known log P values (determination of the log P values by the retention times using linear interpolation between two successive alkanones). lambda-max-values were determined using UV-spectra from 200 nm to 400 nm and the peak values of the chromatographic signals.

Botrytis cinerea = assay: In vivo preventive test on Botrytis cinerea (beans); details: 500 ppm of active ingredient, lesion size 2 days after inoculation
Protocol: Solvent: 24.5 parts by weight of acetone
• 24.5 parts by weight of N,N-dimethylacetamide Emulsifier: 1 part by weight of alkylaryl polyglycol ether
(§2) To produce a suitable preparation of active compound, 1 part by weight of active compound is mixed with the stated amounts of solvent and emulsifier, and the concentrate is diluted with water to the desired concentration.
To test for protective activity, young plants are sprayed with the preparation of active compound. After the spray coating has dried on, 2 small pieces of agar covered with growth of Botrytis cinerea are placed on each leaf. The inoculated plants are placed in a darkened chamber at 20° C. and a relative atmospheric humidity of 100%.
2 days after the inoculation, the size of the lesions on the leaves is evaluated. 0% means an efficacy which corresponds to that of the control, while an efficacy of 100% means that no disease is observed. Under these conditions, excellent (at least 95%) to total protection is observed at a dose of 500 ppm of active ingredient with the following compounds from table C: […]

[3] = system: Aflatoxins production by Aspergillus parasiticus; assay type: cell-based
Venturia inaequalis = assay: In vivo preventive test on Venturia inaequalis (apple scab); details: 100 ppm of active ingredient, evaluated 10 days after inoculation
Protocol: Solvent: 24.5 parts by weight of acetone • 24.5 parts by weight of N,N-dimethylacetamide Emulsifier: 1 part by weight of alkylaryl polyglycol ether To produce a suitable preparation of active compound, 1 part by weight of active compound is mixed with the stated amounts of solvent and emulsifier, and the concentrate is diluted with water to the desired concentration. To test for protective activity, young plants are sprayed with the preparation of active compound at the stated rate of application. […] The plants are then placed in a greenhouse at approximately 21° C. and a relative atmospheric humidity of approximately 90%.

Aspergillus parasiticus = assay type: cell-based; details: 7 days at 20° C., OD620nm
Septoria tritici = assay: In vivo preventive test on Septoria tritici (wheat); details: 500 ppm of active ingredient, evaluated 21 days after inoculation
Protocol: Solvent: 49 parts by weight of N,N-dimethylacetamide Emulsifier: 1 part by weight of alkylaryl polyglycol ether To produce a suitable preparation of active compound, 1 part by weight of active compound or active compound combination is mixed with the stated amounts of solvent and emulsifier, and the concentrate is diluted with water to the desired concentration. To test for preventive activity, young plants are sprayed with the preparation of active compound or active compound combination at the stated rate of application. After the spray coating has dried on, the plants are sprayed with a spore suspension of Septoria tritici. […] The plants are placed in a greenhouse at a temperature of approximately 15° C. and a relative atmospheric humidity of approximately 80%.

Phakopsora pachyrhizi = assay: In vivo protective test on Phakopsora pachyrhizi (soybean rust); details: 250 ppm of active ingredient, evaluated 11 days after inoculation
Protocol: Solvent: 28.5 parts by weight of acetone
Emulsifier: 1.5 parts by weight of polyoxyethylene alkyl phenyl ether
as §2
To test for protective activity, young plants are sprayed with the preparation of active compound at the stated rate of application. One day after spraying, the plants are inoculated with an aqueous spore suspension of the causal agent of soybean rust (Phakopsora pachyrhizi). The plants are then placed in a greenhouse at approximately 20° C. and a relative atmospheric humidity of approximately 80%.
The test is evaluated 11 days after the inoculation. 0% means an efficacy which corresponds to that of the control, while an efficacy of 100% means that no disease is observed.
Under these conditions, good (at least 80%) to total protection is observed at a dose of 250 ppm of active ingredient with the following compounds from table G: […]

Leptosphaeria nodorum = assay: In vivo preventive test on Leptosphaeria nodorum (wheat); details: 500 ppm of active ingredient, evaluated 8 days after inoculation
Protocol: Solvent: 49 parts by weight of N,N-dimethylacetamide Emulsifier: 1 part by weight of alkylaryl polyglycol ether To produce a suitable preparation of active compound, 1 part by weight of active compound or the compound combination is mixed with the stated amounts of solvent and emulsifier, and the concentrate is diluted with water to the desired concentration. To test for protective activity, young plants are sprayed with a preparation of active compound or active compound combination at the stated rate of application. After the spray coating has dried on, the plants are sprayed with a spore suspension of Leptosphaeria nodorum. […] The plants are placed in a greenhouse at a temperature of approximately 15° C. and a relative atmospheric humidity of approximately 80%.

Puccinia recondita [4] = assay: In vivo test on Puccinia recondita (wheat brown rust), Example I; details: wheat (Scipion variety), 500 ppm of active ingredient, grading 10 days after contamination

SMILES	Efficacy (Pyrenophora teres) [%]	disease control (Pyrenophora teres) [%]	Efficacy (Alternaria solani) [%]	disease control (Alternaria solani) [%]	disease control (Puccinia recondita [1]) [%]	logP [2]	Efficacy (Botrytis cinerea) [%]	% Inhibition of Aflatoxin at 50 μM [3] [%]	Efficacy (Venturia inaequalis) [%]	% Inhibition of fungal growth at 50 μM (Aspergillus parasiticus) [%]	Efficacy (Septoria tritici) [%]	Efficacy (Phakopsora pachyrhizi) [%]	Efficacy (Leptosphaeria nodorum) [%]	protection (Puccinia recondita [4])
Cn1nc(C(F)F)c(C(=O)N(C[Si](C)(C)c2ccccc2)C2CCCCC2)c1F [Example 11]	70	70	90	90	80	4.86								
C[Si](C)(CN(C(=O)c1ccco1)C1CCCCC1)c1ccccc1 [N-cyclohexyl-N-{[dimethyl(phenyl)silyl]methyl}-2-furamide, reference compound]		0		0	10									
Cn1nc(C(F)F)c(C(=O)N(C[Si](C)(C)c2cccc(Cl)c2)C2CC2)c1F [Example 31]	100		100			4.18	95	100	100	100	100	100	100	
CCc1nn(C)c(F)c1C(=O)N(C[Si](C)(C)c1ccccc1)C1CC1 [Example 7]						3.64								at least 70%
Cc1nn(C)c(F)c1C(=O)N(C[Si](C)(C)c1cccc(Cl)c1)C1CC1 [Example 27]	100		94			3.67	98		100		100		100	
Cc1cc(C(=O)N(C[Si](C)(C)c2ccccc2)C2CCCCC2)c(C)o1 [Example 12]	70	70	80	80	40	5.62								
Cn1nc(C(F)F)c(C(=O)N(C[Si](C)(C)c2ccc(Cl)cc2Cl)C2CC2)c1F [Example 38]	100		94			4.78	95	100	100	100	100	85	100	
Cn1cc(C(=O)N(C[Si](C)(C)c2ccc(Cl)cc2Cl)C2CC2)c(C(F)F)n1 [Example 41]	100		100			4.41	98		100		100		95	
CCc1nn(C)c(F)c1C(=O)N(C[Si](C)(C)c1ccc(Cl)cc1Cl)C1CC1 [Example 42]	100		100			4.78	100		99		100		100	
Cn1nc(C(F)F)c(C(=O)N(C[Si](C)(C)c2cc(Cl)cc(Cl)c2)C2CC2)c1F [Example 52]	100		100			4.78	100	100	100	100	100	99	100	
Cn1nc(C(F)F)c(C(=O)N(C[Si](C)(C)c2ccccc2Cl)C2CC2)c1F [Example 18]	100		100			4.13		100	99	100	100	80	100	
Cn1nc(C(F)F)c(C(=O)N(C[Si](C)(C)Cc2ccccc2)C2CC2)c1F [Example 55]	100		100			4.03	100	100	100	99	90		100	
